Assay results published in patent US12674204B2, “Method for generating retinal pigment epithelium (RPE) cells from induced pluripotent stem cells (iPSCs)” (THE UNITED STATES OF AMERICA, as represented by the …, priority 2013, dated 2026).

Assays:
Assay type in all cases: cell-based, human
[1] = test system: iPSC-derived RPE cells; assay: Sensitivity of iPSC-derived RPE cells to proteotoxic stressors in 384-well plates; conditions: conc. 10 μM, signals measured four days after the treatment, FIG. 29
Experimental: FIG. 29 is a bar graph showing the sensitivity of iPSC-derived RPE cells to various proteotoxic stressors. RPE cells differentiated from the reporter iPS cell line were grown in 384-well plates and treated with indicated stressors (conc. 10 μM). […] signals were measured four days after the treatment.

[2] = test system: iPSC-derived RPE; assay: Intracellular calcium measurements and electrophysiology of iPSC-derived RPE monolayers
Experimental: Intracellular Calcium Measurements and Electrophysiology: To assess calcium signaling in the RPE cells: ATP (200 μM; Sigma) and Cyclopiazonic Acid (CPA; 10 μM; EMD Millipore); (see Maminishkis et al., Invest. Ophthal. Vis. Sci. 47(8):3612-3624, 2006); Quinn et al., Invest. Ophthal. Vis. Sci. 33(13):3513-3527, 1992).
(§1) Calomel electrodes in series with Ringer solutions and agar bridges were used to measure the transepithelial potential (TEP). The signals from intracellular microelectrodes were referenced to the basal bath to measure the apical and basal membrane potentials, VA and VB, where TEP=VB−VA. The total transepithelial resistance (Rt), and the ratio of the apical to basolateral membrane resistance (RA/RB) were obtained by passing 2-4 μA current pulses (peak to peak) across the tissue and measuring the resultant changes in TEP, VA and VB. See Maminishkis et al. supra and Quinn et al., supra for details.

[3] = test system: iPSC derived retinal pigment epithelial cells; assay: Aphidicolin treatment of iPSC-derived RPE: polarization, electrophysiology and phenotype
From the text: as §1
Aphidicolin is a reversible inhibitor of eukaryotic nuclear DNA replication that blocks the cell cycle at early S phase. Its structure is that of a tetracyclic small molecule. […] It causes committed RPE cells to further mature and form fully-differentiated and highly polarized tissue monolayers (see FIGS. 30-31). Aphidicolin is dissolved in fourth medium and RPE cells are cultured in it for 6-8 weeks before analysis is done.

[4] = test system: reporter iPSC line; assay: GFP reporter signal / FACS analysis of RPE differentiation from reporter iPSC line; conditions: NAW versus NA, FIG. 17
From the text: To optimize the protocol for iPSC to RPE differentiation, a reporter iPSC line was created. This reporter line constitutively expresses a red fluorescent protein, whose expression is controlled by ubiquitin gene promoter. The reporter iPSC line also expresses a green fluorescent protein (GFP), specifically when differentiated in to RPE lineage (FIG. 1-3). The RPE-specific enhancer of the gene Tyrosinase controls GFP expression in this iPSC line (FIG. 1). The first goal was to confirm that the GFP expression truly represents RPE lineage. To achieve this, iPSC line were differentiated using published differentiation protocols and characterized those differentiated cells using molecular and physiological assays. These assays are disclosed in FIGS. 22-24. FIG. 2 describes a simple schematic drawing of iPSC-RPE differentiation. When the reporter iPSC were differentiated into RPE, approximately 28 days into differentiation, GFP positive cells are present (FIG. 3A). […] GFP positive and negative cells were sorted by flow cytometry and the expression of several RPE-specific genes was analyzed, shown in FIG. 4.
Activin A induces RPE differentiation from ES cells. […] When quantified by FACS analysis, NA treatment produced only 22% GFP positive cells, whereas NAW treatment produced 52% GFP positive cells (FIG. 17, bottom panel).

[5] = test system: iPSCs; assay: RPE differentiation from iPSCs scored by pigmented cells
Experimental: Transfer cells to Retinal Media (RM) plus Nicotinamide, Activin, and Wnt3a (NAW). Change media every other day (eg. Mon, Wed, and Fri) for 3 weeks.
Next, the effect of the concentration of knockout serum replacement (KSR) on RPE differentiation was tested.
Activin A induces RPE differentiation from ES cells. In animal models, canonical WNT (WNT3a) is important for RPE differentiation. It was hypothesized that a combination of activin A and WNT3a would be effective for the induction of RPE differentiation from iPSCs. A combination of these two factors was tested at the optic vesicle stage. Cells were moved from the RDM medium to medium containing either activin A (NA) only or activin A plus WNT3a (NAW). […] Because this differentiation process was started with the reporter iPSC lines, the increase in the number of RPE cell was confirmed by comparing the GFP signal between the two treatments. […] When quantified by FACS analysis, NA treatment produced only 22% GFP positive cells, whereas NAW treatment produced 52% GFP positive cells (FIG. 17, bottom panel).

[6] = test system: iPSCs; assay: Quantitative gene expression of Pax6 and Mitf during eye-field/optic vesicle differentiation; conditions: 50 ng/ml Noggin with dual inhibition of WNT pathway and inhibition of FGF pathway
Experimental: After 48 hours of floating EB cultures they are plated onto MATRIGEL® coated plates in RDM medium. It was investigated whether the number of EBs plated/well affects differentiation of iPSCs into RPE. […] RDM medium was used for 3 weeks with change of medium on cells every Monday, Wednesday, and Friday Inhibition of Nodal, BMP, and WNT pathways can be important for differentiation of stem cells into eye-field cells. To inhibit the nodal pathway, the inhibitor SB431542 was used. To inhibit the activity of BMP pathway, various concentrations of Noggin, a BMP inhibitor, were tested. For WNT pathway inhibition, a combination of biological Wnt inhibitor DKK1 and a small molecule inhibitor of the WNT pathway CK1-7 were used.
Results have shown that inhibition of FGF signaling is important for RPE development. Therefore, the activity of FGF signaling pathway was modulated by either changing its concentration or/and by adding FGF inhibitor (PD 0325901) to the medium. The results were scored weekly by quantitative gene expression measurements of two transcription factors Pax6 and Mitf which are the master regulators of RPE differentiation (FIGS. 8-13). In addition, GFP expression was scored after six weeks as a direct measure of induction of RPE cells (FIG. 14).

[7] = aphidicolin treated RPE cells, FIG. 31

O=CC[C@@H](O)[C@H](O)[C@H](O)CO [2-Deoxy-D-Glucose]
effect on RPE phenotype (GFP signal) [1]: affected RPE phenotype

CNc1ccc2oc(C[C@H]3O[C@@]4(CC[C@H]3C)O[C@H]([C@H](C)C(=O)c3ccc[nH]3)[C@H](C)C[C@H]4C)nc2c1C(=O)O [A23187]
effect on RPE phenotype (GFP signal) [1]: affected RPE phenotype

Nc1ncnc2c1ncn2[C@@H]1O[C@H](COP(=O)(O)OP(=O)(O)OP(=O)(O)O)[C@@H](O)[C@H]1O [ATP]
intracellular calcium response ([2]; apical application, FIG. 26C): typical bi-phasic response | basolateral membrane potential response ([2]; applied to the apical membrane, FIG. 26D): significantly depolarizes the basolateral membrane

C[C@@]1(CO)[C@H](O)CC[C@@]2(C)[C@H]1CC[C@H]1C[C@@H]3C[C@@]12CC[C@]3(O)CO [Aphidicolin]
membrane potential [3, 7]: higher | physiological responses (hyperpolarization to low potassium or ATP on the apical side) [3, 7]: better physiological responses | transepithelial resistance [3, 7]: higher | apical process / polarization of RPE cells ([3]; compared to non-treated cells, FIG. 30): more extensive apical process | RPE phenotype of iPS cell derived RPE on artificial membranes/scaffolds ([3]; cultured 6-8 weeks in fourth medium with aphidicolin): improves their RPE phenotype

C/C=C(/C)C(=O)O[C@H]1C(C)=C2[C@H]([C@@H]1OC(=O)CCCCCCC)[C@@](C)(OC(C)=O)C[C@H](OC(=O)CCC)[C@@]1(O)[C@H]2OC(=O)[C@@]1(C)O [Thapsigargin]
effect on RPE phenotype (GFP signal) [1]: affected RPE phenotype

B1: WNT3a: canonical WNT signaling regulator (protein, UniProt P56704 19-352, looked up)
Protein Wnt-3a: SYPIWWSLAVGPQYSSLGSQPILCASIPGLVPKQLRFCRNYVEIMPSVAEGIKIGIQECQHQFRGRRWNCTTVHDSLAIFGPVLDKATRESAFVHAIASAGVAFAVTRSCAEGTAAICGCSSRHQGSPGKGWKWGGCSEDIEFGGMVSREFADARENRPDARSAMNRHNNEAGRQAIASHMHLKCKCHGLSGSCEVKTCWWSQPDFRAIGDFLKDKYDSASEMVVEKHRESRGWVETLRPRYTYFKVPTERDLVYYEASPNFCEPNPETGSFGTRDRTCNVSSHGIDGCDLLCCGRGHNARAERRREKCRCVFHWCCYVSCQECTRVYDVHTCK
number of GFP positive cells in differentiating iPSC cultures [4]: significantly increases the number of GFP positive cells | number of pigmented cells per dish ([5]; activin A plus WNT3a (NAW) versus activin A only (NA), FIG. 16): significantly increased the number of pigmented cells per dish | RPE differentiation efficiency ([5]; addition of WNT3a to Retinal Media with Nicotinamide and Activin): significantly increased the RPE differentiation efficiency

B2: Noggin: a BMP inhibitor, protein encoded by the NOG gene (protein, UniProt Q13253 28-232, looked up)
Noggin: QHYLHIRPAPSDNLPLVDLIEHPDPIFDPKEKDLNETLLRSLLGGHYDPGFMATSPPEDRPGGGGGAAGGAEDLAELDQLLRQRPSGAMPSEIKGLEFSEGLAQGKKQRLSKKLRRKLQMWLWSQTFCPVLYAWNDLGSRFWPRYVKVGSCFSKRSCSVPEGMVCKPSKSVHLTVLRWRCQRRGGQRCGWIPIQYPIISECKCSC
expression of Pax6 and Mitf during the three weeks [6]: significantly and progressively improve the expression of Pax6 and Mitf
